# Reference: US20180016593A1, “HERBICIDE-RESISTANT SUNFLOWER PLANTS, POLYNUCLEOTIDES ENCODING HERBICIDE-RESISTANT ACETOHYDROXYACID SYNTHASE LARGE SUBUNIT PROTEINS, AND METHODS OF USE” (priority 2005, published 2018)
# Where two headings read alike, the source gives them in different places.
# Tests used:
# [1] = tested on: sunflower TH9 (Hybrid, A205V); format: in vivo, Helianthus annuus; conditions: 14 DAT
# [2] = tested on: Clearfield sunflower variety B; test: Greenhouse spray injury rating (Example 5); format: in vivo; conditions: in vivo
# Description: (§1) Methods: Sunflower lines S4897, Clearfield® sunflower varieties A, B, C and a conventional non-Clearfield variety were sprayed with three rates of imazamox (Raptor™), 100, 200 and 300 gm ai/ha plus 0.5% Sun It II and two rates of imazapyr (Arsenal™) 160 and 360 gm ai/ha plus 0.5% Sun It II when the plants were at the two to three leaf stage. Ratings were taken at 14 days after application (DAT) for injury. Injury was rated on a scale from 0 to 9 where […] to 9=dead plant. Twelve plants were sprayed per herbicide/rate treatment. Statistical analysis was conducted with STATGRAPHICS Plus 5.0 by using ANOVA and LSD procedures.
# (§2) Results: After plants were sprayed, it was realized that a height difference between S4897 and other sunflower varieties would have impacted the actual herbicide dose that was delivered. The spray boom height had been calibrated against S4897 and since the other varieties were taller and closer to the boom they would have received a greater dose of herbicide. Rates were recalibrated for the other varieties to determine the approximate dose they would have received. Assessments were made as presented in Table 2 since it was not possible to make a direct rate comparison due to the effect of the height. For example injury scores were compare for S4897 treated imazamox rate 100 gm ai/ha to the other varieties treated at 75 gm ai/ha. The treatment dose of 300 gm ai/ha for line S4897 was equivalent to the treatment of 200 gm ai/ha for the other varieties, which approximately was 300 gm ai/ha.
# [3] = tested on: conventional non-Clearfield variety; test: Greenhouse spray injury rating (Example 5); format: in vivo; conditions: in vivo
# Description: as §1, §2
# [4] = tested on: Clearfield sunflower variety A; test: Greenhouse spray injury rating (Example 5); format: in vivo; conditions: in vivo
# Description: as §1, §2
# [5] = tested on: Clearfield sunflower variety C; test: Greenhouse spray injury rating (Example 5); format: in vivo; conditions: in vivo
# Description: as §1, §2
# [6] = tested on: sunflower IB920 (Manteiner Line, A205V); test: Greenhouse whole-plant imazapir dose response (Example 8); format: in vivo, Helianthus annuus; conditions: 14 DAT
# Experimental: (§3) A greenhouse study was conducted to quantify and contrast the imazapir sensivity of the mutants A122T and A205V in different genetic backgrounds at the whole plant level in sunflower. Seeds of the different sunflower lines that were used in this study were obtained under field conditions.
# (§4) Seeds were sown in Petri dishes and, after germination, plantlets were transplanted to pots of 10 cm of diameter in a potting media consisting of equal parts of vermiculite, soil and sand. Plants were grown in a greenhouse under natural light conditions supplemented with 400 W sodium halide lamps to provide a 16 hrs daylength. Day/night temperatures were 25 and 20° C., respectively. At the V2 stage 10 plants of each genotype were randomly assigned to each treatment consisting of […] imazapir doses (0, 40, 80, 160, 240, 320, 400 and 480 g ai/ha), and a zero-time biomass determination. Experiment was arranged as a randomized block design with a full factorial (sunflower line×treatment) arrangement of treatments and 10 replications.
# (§5) On the day of herbicide application ten plants of each genotype were cut at the cotyledonal node and dried at 60° C. for 48 hrs zero-time for dried weight determination.
# (§6) Height was determined as the distance between the cotyledonal node and the apex of each plant. For root biomass determination, each plant was taken from the pot and the potting media was washed out from the roots. Above ground biomass data from each line were converted to biomass accumulation after application by subtracting the appropriate average zero-time biomass from each sample. Dry biomass data were converted to percentages of the untreated control plants within each line to allow direct comparisons between groups. […]
# [7] = tested on: sunflower GIM 5-7 (Manteiner Line, A205V); test: as above; format: in vivo, Helianthus annuus; conditions: GIM5-7, 14 DAT
# Experimental: as §3, §4, §5, §6
compound,measurement,setting,value
CC(C)C1(C)N=C(c2ncccc2C(=O)O)NC1=O (stereo not shown) [imazapyr],Phytotoxicity Index,[1]; 0.5x (40 g ai/ha),0
same,biomass accumulation (above ground dry weight),[1]; 0.5x (40 g ai/ha),91.7 % of untreated plots
same,plant height,[1]; 0.5x (40 g ai/ha),100.0 % of untreated plots
same,root dry weight,[1]; 0.5x (40 g ai/ha),81.5 % of untreated plots
same,Phytotoxicity Index,[1]; 1x (80 g ai/ha),0
same,biomass accumulation (above ground dry weight),[1]; 1x (80 g ai/ha),81.7 % of untreated plots
same,plant height,[1]; 1x (80 g ai/ha),100.0 % of untreated plots
same,root dry weight,[1]; 1x (80 g ai/ha),84.9 % of untreated plots
same,Phytotoxicity Index,[1]; 2x (160 g ai/ha),1.6
same,biomass accumulation (above ground dry weight),[1]; 2x (160 g ai/ha),54.7 % of untreated plots
same,plant height,[1]; 2x (160 g ai/ha),78.9 % of untreated plots
same,root dry weight,[1]; 2x (160 g ai/ha),58.8 % of untreated plots
same,Phytotoxicity Index,[1]; 3x (240 g ai/ha),5.1
same,biomass accumulation (above ground dry weight),[1]; 3x (240 g ai/ha),35.7 % of untreated plots
same,plant height,[1]; 3x (240 g ai/ha),50.0 % of untreated plots
same,root dry weight,[1]; 3x (240 g ai/ha),34.1 % of untreated plots
same,Phytotoxicity Index,[1]; 4x (320 g ai/ha),8.4
same,biomass accumulation (above ground dry weight),[1]; 4x (320 g ai/ha),25.3 % of untreated plots
same,plant height,[1]; 4x (320 g ai/ha),38.1 % of untreated plots
same,root dry weight,[1]; 4x (320 g ai/ha),27.3 % of untreated plots
same,Phytotoxicity Index,[1]; 5x (400 g ai/ha),8.9
same,biomass accumulation (above ground dry weight),[1]; 5x (400 g ai/ha),19.8 % of untreated plots
same,plant height,[1]; 5x (400 g ai/ha),31.8 % of untreated plots
same,root dry weight,[1]; 5x (400 g ai/ha),29.9 % of untreated plots
same,Phytotoxicity Index,[1]; 6x (480 g ai/ha),8.9
same,biomass accumulation (above ground dry weight),[1]; 6x (480 g ai/ha),19.5 % of untreated plots
same,plant height,[1]; 6x (480 g ai/ha),34.7 % of untreated plots
same,root dry weight,[1]; 6x (480 g ai/ha),22.1 % of untreated plots
same,Injury (scale 0 to 9),[2],4.3 b
same,Injury (scale 0 to 9),[3],8.2 days
same,Injury (scale 0 to 9),[4],5.0 c
same,Injury (scale 0 to 9),[5],4.9 c
same,biomass accumulation (above ground dry weight),[6]; 0.5x (40 g ai/ha),93.9 % of untreated plots
same,plant height,[6]; 0.5x (40 g ai/ha),96.2 % of untreated plots
same,root dry weight,[6]; 0.5x (40 g ai/ha),94.0 % of untreated plots
same,biomass accumulation (above ground dry weight),[6]; 1x (80 g ai/ha),87.9 % of untreated plots
same,plant height,[6]; 1x (80 g ai/ha),80.0 % of untreated plots
same,root dry weight,[6]; 1x (80 g ai/ha),89.6 % of untreated plots
same,biomass accumulation (above ground dry weight),[6]; 2x (160 g ai/ha),58.8 % of untreated plots
same,plant height,[6]; 2x (160 g ai/ha),61.5 % of untreated plots
same,root dry weight,[6]; 2x (160 g ai/ha),50.7 % of untreated plots
same,biomass accumulation (above ground dry weight),[6]; 3x (240 g ai/ha),48.4 % of untreated plots
same,plant height,[6]; 3x (240 g ai/ha),40.9 % of untreated plots
same,root dry weight,[6]; 3x (240 g ai/ha),37.3 % of untreated plots
same,biomass accumulation (above ground dry weight),[6]; 4x (320 g ai/ha),35.5 % of untreated plots
same,plant height,[6]; 4x (320 g ai/ha),27.9 % of untreated plots
same,root dry weight,[6]; 4x (320 g ai/ha),32.8 % of untreated plots
same,plant height,[6]; 5x (400 g ai/ha),30.0 % of untreated plots
same,root dry weight,[6]; 5x (400 g ai/ha),25.4 % of untreated plots
same,biomass accumulation (above ground dry weight),[6]; 6x (480 g ai/ha),29.4 % of untreated plots
same,plant height,[6]; 6x (480 g ai/ha),27.1 % of untreated plots
same,root dry weight,[6]; 6x (480 g ai/ha),19.4 % of untreated plots
same,biomass accumulation (above ground dry weight),[7]; 0.5x (40 g ai/ha),92.9 % of untreated plots
same,plant height,[7]; 0.5x (40 g ai/ha),79.1 % of untreated plots
same,root dry weight,[7]; 0.5x (40 g ai/ha),79.2 % of untreated plots
same,biomass accumulation (above ground dry weight),[7]; 1x (80 g ai/ha),75.1 % of untreated plots
same,plant height,[7]; 1x (80 g ai/ha),76.7 % of untreated plots
same,root dry weight,[7]; 1x (80 g ai/ha),56.3 % of untreated plots
same,biomass accumulation (above ground dry weight),[7]; 2x (160 g ai/ha),55.1 % of untreated plots
same,plant height,[7]; 2x (160 g ai/ha),57.7 % of untreated plots
same,root dry weight,[7]; 2x (160 g ai/ha),40.6 % of untreated plots
same,biomass accumulation (above ground dry weight),[7]; 3x (240 g ai/ha),45.6 % of untreated plots
same,plant height,[7]; 3x (240 g ai/ha),55.3 % of untreated plots
same,root dry weight,[7]; 3x (240 g ai/ha),40.2 % of untreated plots
same,biomass accumulation (above ground dry weight),[7]; 4x (320 g ai/ha),31.8 % of untreated plots
same,plant height,[7]; 4x (320 g ai/ha),27.3 % of untreated plots
same,root dry weight,[7]; 4x (320 g ai/ha),34.0 % of untreated plots
same,biomass accumulation (above ground dry weight),[7]; 5x (400 g ai/ha),34.2 % of untreated plots
same,plant height,[7]; 5x (400 g ai/ha),37.2 % of untreated plots
same,root dry weight,[7]; 5x (400 g ai/ha),48.5 % of untreated plots
same,biomass accumulation (above ground dry weight),[7]; 6x (480 g ai/ha),36.8 % of untreated plots
same,plant height,[7]; 6x (480 g ai/ha),30.0 % of untreated plots
same,root dry weight,[7]; 6x (480 g ai/ha),43.1 % of untreated plots
